Laboratory results taken from ChEMBL document CHEMBL1201862, “PubChem BioAssay data set” (2004).
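Briefly, cells in 96-well plates were exposed to five compound concentrations for 48 h, and endpoints were estimated by linear interpolation. The concentration for 50% growth inhibition is given as GI50.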 The source made the active and inactive calls. Rule as the data show it: active = GI50 up to about 1.1 µM and inactive = higher.

Columns and labels:
Experiment in all cases: DTP human tumour cell line panel, 48 h
A549 = system: A549
DU-145 = system: DU-145
IGROV-1 = system: IGROV-1
TK-10 = system: TK-10
COLO 205 = system: COLO 205
SK-MEL-28 = system: SK-MEL-28
OVCAR-8 = system: OVCAR-8
U-251 = system: U-251
HOP-62 = system: HOP-62
RPMI-8226 = system: RPMI-8226
CCRF-CEM = system: CCRF-CEM
MCF7 = system: MCF7
SK-MEL-5 = system: SK-MEL-5
SK-MEL-2 = system: SK-MEL-2
RXF 393 = system: RXF 393
T47D = system: T47D
HCT-15 = system: HCT-15
SK-OV-3 = system: SK-OV-3
ACHN = system: ACHN
NCI-H460 = system: NCI-H460

Compound	GI50 (A549)	GI50 (DU-145)	GI50 (IGROV-1)	GI50 (TK-10)	GI50 (COLO 205)	GI50 (SK-MEL-28)	GI50 (OVCAR-8)	GI50 (U-251)	GI50 (HOP-62)	GI50 (RPMI-8226)	GI50 (CCRF-CEM)	GI50 (MCF7)	GI50 (SK-MEL-5)	GI50 (SK-MEL-2)	GI50 (RXF 393)	GI50 (T47D)	GI50 (HCT-15)	GI50 (SK-OV-3)	GI50 (ACHN)	GI50 (NCI-H460)
CCc1ccc(CCN2CCCCC2)nc1	> 100 µM (inactive)	> 100 µM (inactive)	58.9 µM (inactive)	> 100 µM (inactive)	> 100 µM (inactive)	> 100 µM (inactive)	> 100 µM (inactive)	> 100 µM (inactive)	> 100 µM (inactive)	96.8 µM (inactive)	> 100 µM (inactive)	> 100 µM (inactive)	> 100 µM (inactive)	> 100 µM (inactive)	> 100 µM (inactive)	> 100 µM (inactive)	> 100 µM	> 100 µM (inactive)	> 100 µM (inactive)	> 100 µM (inactive)
CN(CCNC(=O)c1c[nH]c2c1ccc1ccccc12)CCNC(=O)c1c[nH]c2c1ccc1ccccc12	2.2 µM (inactive)	1.99 µM (inactive)	1.41 µM (inactive)	3.21 µM (inactive)	1.61 µM (inactive)	2 µM (inactive)	1.93 µM (inactive)	2 µM (inactive)	2.36 µM (inactive)	3.15 µM (inactive)	1.73 µM (inactive)	1.43 µM (inactive)	7.29 µM (inactive)	1.99 µM (inactive)	1.14 µM (inactive)	1.14 µM (inactive)	1.92 µM	4.23 µM (inactive)	1.86 µM (inactive)	1.96 µM (inactive)
O=c1c2cc(I)ccc2nc(Sc2ccc([N+](=O)[O-])cc2[N+](=O)[O-])n1Cc1ccccc1	15.2 µM (inactive)	2.96 µM (inactive)	2.02 µM (inactive)	7.59 µM (inactive)	5.14 µM (inactive)	7.14 µM (inactive)	1.6 µM (inactive)	3.81 µM (inactive)	2.93 µM (inactive)	1.74 µM (inactive)	0.159 µM (active)	2.02 µM (inactive)	3.48 µM (inactive)	1.85 µM (inactive)	2.38 µM (inactive)	1.71 µM (inactive)	1.61 µM	8.13 µM (inactive)	8.73 µM (inactive)	4.24 µM (inactive)
COc1cc(C2C3=C(NC(=O)C2C#N)c2ccc4ccccc4c2OCC3)cc(OC)c1OC (stereo not given)	54.2 µM (inactive)	34.4 µM (inactive)	16.2 µM (inactive)	> 100 µM (inactive)	15.4 µM (inactive)	18.3 µM (inactive)	86.7 µM (inactive)	16.7 µM (inactive)	20 µM (inactive)	7.83 µM (inactive)	70.8 µM (inactive)	30.9 µM (inactive)	28.2 µM (inactive)	22.1 µM (inactive)	14.4 µM (inactive)	12.2 µM (inactive)	41.8 µM	17.2 µM (inactive)	16.6 µM (inactive)	25.9 µM (inactive)
CC(=O)OC1CCC2(C)C(=CCC3C2CCC2(C)C(C(C)C(=O)O)CCC32)C1 (stereo not given)	54.8 µM (inactive)	> 100 µM (inactive)	> 100 µM (inactive)	> 100 µM (inactive)	39.9 µM (inactive)	> 100 µM (inactive)	> 100 µM (inactive)	88.9 µM (inactive)	> 100 µM (inactive)	> 100 µM (inactive)	> 100 µM (inactive)	51.1 µM (inactive)	70.6 µM (inactive)	> 100 µM (inactive)	69.5 µM (inactive)	> 100 µM (inactive)	78.5 µM	> 100 µM (inactive)	59.7 µM (inactive)	63 µM (inactive)
CC(=O)Nc1ccc(OC2=CCN(C)CC2)cc1	> 100 µM (inactive)	> 100 µM (inactive)	> 100 µM (inactive)	> 100 µM (inactive)	> 100 µM (inactive)	> 100 µM (inactive)	> 100 µM (inactive)	> 100 µM (inactive)	> 100 µM (inactive)	> 100 µM (inactive)	> 100 µM (inactive)	> 100 µM (inactive)	> 100 µM (inactive)	> 100 µM (inactive)	> 100 µM (inactive)	> 100 µM (inactive)	> 100 µM	> 100 µM (inactive)	> 100 µM (inactive)	> 100 µM (inactive)
C[C@H]1CC(=O)[C@@]2(O)C#C/C=C\C#C[C@@H]3Nc4c(cc(O)c5c4C(=O)c4ccccc4C5=O)[C@]24O[C@]314	0.00543 µM (active)	0.00189 µM (active)	0.16 µM (active)	0.0574 µM (active)	0.0568 µM (active)	0.0338 µM (active)	0.0158 µM (active)	0.00701 µM (active)	0.00159 µM (active)	0.00356 µM (active)	0.00106 µM (active)	< 0.001 µM (active)	0.00266 µM (active)	0.478 µM (active)	0.0114 µM (active)	0.0305 µM (active)	0.0248 µM	0.0171 µM (active)	< 0.001 µM (active)	< 0.001 µM (active)
